Assay results: US11396499B2, “Lysosomal acid lipase assay” (University of Washington, priority 2018, dated 2022)

Assays:
[1] = molecular target: T1, lysosomal acid lipase (LAL) (Homo sapiens, UniProt P38571); experiment: Testing potential LAL substrates with DBS; format: biochemical
T1 construct: from tissue; host or cells: dried blood spots (DBS) from healthy adults, healthy children and LAL-deficient patients
T1 sequence (P38571 77-399): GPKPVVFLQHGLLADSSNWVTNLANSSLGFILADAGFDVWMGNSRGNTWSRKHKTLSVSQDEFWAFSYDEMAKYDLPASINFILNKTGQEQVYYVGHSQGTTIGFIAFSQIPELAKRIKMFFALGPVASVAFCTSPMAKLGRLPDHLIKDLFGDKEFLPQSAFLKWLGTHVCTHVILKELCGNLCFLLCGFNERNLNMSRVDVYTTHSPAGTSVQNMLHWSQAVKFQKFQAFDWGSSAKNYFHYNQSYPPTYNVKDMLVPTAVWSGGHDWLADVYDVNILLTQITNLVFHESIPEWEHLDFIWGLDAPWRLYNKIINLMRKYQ
Experimental: Compound 8. Assay cocktail contained 0.69 mM Compound 8, 10 mM internal standard (analog of the product containing an n-hexanoyl amide tail instead of the n-pentanoyl amide tail) in 0.15 M sodium acetate, pH 4.02, containing 0.1% Triton X-100. Assay cocktail (30 mL) was added to a 3 mm DBS punch from a normal adult and 10 mL of 30 mM aqueous Lalistat-2 or H2O was added, and the mixture was incubated at 37° C. for 16 hr in an Eppendorf tube with orbital shaking at 250 rpm. The assay was quenched by addition of 120 mL of acetonitrile. The sample was centrifuged for 5 min at 3000×g, and 120 mL of supernatant was transferred to an autosampler plate. Water (60 mL) was added to the well, and 10 mL was injected for UPLC-MS/MS. Compound 8 product was analyzed by UPLC-MS/MS using the authentic product as a standard to establish UPLC and MS/MS conditions.
Compound 9. Assay cocktail contained 0.3 mM Compound 9 (from a 10 mM DMSO stock) in a 14:1 solution of 0.15 M sodium acetate pH 4.0 1% Triton-X-100 and 0.5% m/v cardiolipin in methanol. […] Compound 9 product was analyzed by UPLC-MS/MS using the authentic product as a standard to establish UPLC and MS/MS conditions.
Compounds 10-13. […] Samples were immediately read on a plate-reader fluorometer with an excitation wavelength of 355 nm and emission wavelength of 460 nm. […]

[2] = molecular target: T1, lysosomal acid lipase (LAL); experiment: Previous fluorometric LAL assay (Hamilton et al.) with palmitoyl-4MU with and without Lalistat-2 in DBS; format: biochemical
Description: LAL is detected in leukocytes or fibroblasts using radiometric, immunologic, or fluorescence assays (The metabolic and molecular bases of inherited disease. 8th Ed. New York (NY): McGraw-Hill; 2001. p. 3827-3387). Hamilton and colleagues recently developed a fluorometric assay to detect LAL in dried blood spots (DBS) (Hamilton et al., Clin Chim Acta 2012; 413:1207-10). The assay is based on the release of 4-methylumbelliferone from its ester with palmitic acid. However, the substrate is not specific for LAL, and the method requires two assays performed in parallel, the first in the presence of a LAL-specific covalent inactivator Lalistat-2. LAL activity is calculated from the difference in these 2 assays.
A concentration of P-PMHC in the mixture of 3 mmol/L was settled on based on a combination of high LAL activity and minimal background. The original assay described by Hamilton et al. (Clin Chim Acta 2012; 413:1207-10) used 40 μL of an aqueous extract of a 3-mm DBS added to 160 μL of assay mixture. To keep the solvent volumes for the liquid-liquid extraction to a minimum, thus avoiding long times for solvent removal, 10 μL of an aqueous extract of a 3-mm DBS punch was added to 30 μL of assay mixture.

specific activity for the LAL component ([2]; 3-mm punch from an identical DBS, previous fluorometric assay with and without Lalistat-2) [µmol/h/L]	fold lower than the activity measured with the UPLC-MS/MS assay ([2]; 466 versus 874 μmol/h/L, identical DBS) [fold]	fraction of the substrate hydrolyzed by esterases/lipases in DBS other than LAL ([2]; DBS)	Molecule	detectable LAL activity when tested with DBS [1]
			4-propyl-8-methyl-7-palmitoyloxycoumarin [Compound 1]	None of these compounds displayed detectable LAL activity
466	1.9	about one third	CCCCCCCCCCCCCCCC(=O)Oc1ccc2c(C)cc(=O)oc2c1 [palmitoyl-4MU]	displayed measurable LAL activity
